This is an account of results in patent US12643871B2, “Aryl formamide compound containing chiral sulfur oxide or salt thereof, preparation method, herbicidal composition and use thereof” (Qingdao Kingagroot Chemical Compound Co., Ltd., priority 2019, dated 2026).

The test system of experiment [1] is Echinochloa crusgali. In words: Weeding effect in post-emergence stage. In kind it is in vivo. The settings on record: 250 g/ha; 2 leaf stage; 15 days after application; fresh weight control rate. The text has this: (§1) The activity level criteria for harmful plant damage (i.e., growth control rate) are as follows: • Level 5: growth control rate is above 85%; • Level 4: growth control rate is greater than or equal to 60% and less than 85%; • Level 3: growth control rate is greater than or equal to 40% and less than 60%; • Level 2: growth control rate is greater than or equal to 20% and less than 40%; • Level 1: growth control rate is greater than or equal to 5% and less than 20%; • Level 0: growth control rate is less than 5%.
(§2) The above growth control rates are fresh weight control rates.
(§3) Experiment on weeding effect in post-emergence stage: monocotyledonous and dicotyledonous weed seeds (Descurainia sophia, Capsella bursa-pastoris, Galium aparine, Stellaria media, Lithospermum arvense, Rorippa indica, Alopecurus aequalis, Beckmannia syzigachne, Sclerochloa dura, Phleum paniculatum, Bromus japonicus, Aegilops tauschii, Phalaris arundinacea, Amaranthus retroflexus, Chenopodiaceae, Commelina communis, Sonchus arvensis, convolvulus arvensis, Cirsium setosum, Solanum nigrum, Acalypha australis, Digitaria sanguinalis, Echinochloa crusgalli, Setaria viridis, Setaria glauca, Leptochloa chinensis, Monochoria vaginalis, Sagittaria trifolia, Scirpus juncoides, Cyperus rotundus, Cyperus iria, Cyperus difformis, Fimbristylis, Portulaca oleracea, Xanthium sibiricum, Pharbitis nil) and major crop seeds (wheat, corn, rice, soybean, cotton, oilseed rape, millet, sorghum, potato, sesame, ricinus) were placed in plastic pots filled with soil, then covered with 0.5-2 cm of soil, allowed to grow in a good greenhouse environment. After 2 weeks of sowing, the test plants were treated in the 2 leaf stage. The tested compounds of the present invention were respectively dissolved in acetone, then added with Tween 80 and 1.5 liter/ha of emulsifiable concentrate of methyl oleate as synergist, diluted with a certain amount of water to obtain a solution with a certain concentration, and sprayed with a spray tower onto the plants. After the application, the plants were cultured for 15 days in the greenhouse, and then the experimental results of the weeding were counted. The doses of the used compounds were 500, 250, 125, 60, 30, 15 g/ha, and the averages were obtained by repeating for three times.

Experiment [2] deals with Amaranthus retroflexus. The experiment can be described thus: Weeding effect in post-emergence stage. The experiment is classed as in vivo. The settings on record: 250 g/ha; 2 leaf stage; 15 days after application; fresh weight control rate.
Text: as §1, §2, §3

Structures are written as SMILES.

As to `Cc1nnc(NC(=O)c2ccc(C(F)(F)F)c([S@+]([O-])CCC(C)(C)C)c2F)o1` [Compound 13], in experiment [1], the “weeding effect in post-emergence stage, activity level (growth control rate), Echinochloa crusgali” value (shortened to “weeding effect … Echinochloa crusgali”) was 5 (Level 5: growth control rate is above 85%). Further, in experiment [2], the “weeding effect in post-emergence stage, activity level (growth control rate), Amaranthus retroflexus” value (“weeding effect … Amaranthus retroflexus” for short) is 5 (Level 5: growth control rate is above 85%).

Consider `CCCCCCC[S@@+]([O-])c1c(C(F)(F)F)ccc(C(=O)Nc2nnc(C)o2)c1F` [Compound 14], for which the “weeding effect … Echinochloa crusgali” value in experiment [1] is listed as 5 (Level 5: growth control rate is above 85%). Also, the “weeding effect … Amaranthus retroflexus” value in experiment [2] is 5 (Level 5: growth control rate is above 85%).

For the compound `Cc1nnc(NC(=O)c2ccc(C(F)(F)F)c([S@+]([O-])CCC3CCCCC3)c2F)o1` [Compound 18], the “weeding effect … Echinochloa crusgali” value in experiment [1] was 5 (Level 5: growth control rate is above 85%). Besides, the “weeding effect … Amaranthus retroflexus” value in experiment [2] is 5 (Level 5: growth control rate is above 85%).

In the case of `Cc1nnc(NC(=O)c2ccc(C(F)(F)F)c([S+]([O-])C#N)c2F)o1` (stereo not drawn) [Compound 51], the “weeding effect … Echinochloa crusgali” value in experiment [1] is 5 (Level 5: growth control rate is above 85%). For the same compound, in experiment [2], the “weeding effect … Amaranthus retroflexus” value is listed as 5 (Level 5: growth control rate is above 85%).

In the case of `Cc1nnc(NC(=O)c2ccc(C(F)(F)F)c([S@@+]([O-])C(=O)c3ccco3)c2F)o1` [Compound 171], in experiment [1], the “weeding effect … Echinochloa crusgali” value was 5 (Level 5: growth control rate is above 85%). Besides, the “weeding effect … Amaranthus retroflexus” value in experiment [2] is 5 (Level 5: growth control rate is above 85%).

As for `Cc1nnc(NC(=O)c2ccc(C(F)(F)F)c([S@@+]([O-])C(=O)N(C)C)c2F)o1` [Compound 176], the “weeding effect … Echinochloa crusgali” value in experiment [1] is on record as 5 (Level 5: growth control rate is above 85%). Besides, the “weeding effect … Amaranthus retroflexus” value in experiment [2] is 5 (Level 5: growth control rate is above 85%).

`Cc1nnc(NC(=O)c2ccc(C(F)(F)F)c([S@+]([O-])CC(=O)N(C)C)c2F)o1` [Compound 178]: the “weeding effect … Echinochloa crusgali” value in experiment [1] is on record as 5 (Level 5: growth control rate is above 85%). Moreover, in experiment [2], the “weeding effect … Amaranthus retroflexus” value is 5 (Level 5: growth control rate is above 85%).

Turning to `Cc1nnc(NC(=O)c2ccc(C(F)(F)F)c([S@+]([O-])CC=O)c2F)o1` [Compound 191], in experiment [1], the “weeding effect … Echinochloa crusgali” value is listed as 5 (Level 5: growth control rate is above 85%). For the same compound, the “weeding effect … Amaranthus retroflexus” value in experiment [2] is 5 (Level 5: growth control rate is above 85%).

`Cc1nnc(NC(=O)c2ccc(C(F)(F)F)c([S@+]([O-])CCC=O)c2F)o1` [Compound 192]: in experiment [1], the “weeding effect … Echinochloa crusgali” value is recorded as 5 (Level 5: growth control rate is above 85%). Moreover, in experiment [2], the “weeding effect … Amaranthus retroflexus” value was 5 (Level 5: growth control rate is above 85%).

For the compound `CC(=O)C[S@@+]([O-])c1c(C(F)(F)F)ccc(C(=O)Nc2nnc(C)o2)c1F` [Compound 193], the “weeding effect … Echinochloa crusgali” value in experiment [1] is reported as 5 (Level 5: growth control rate is above 85%). Moreover, the “weeding effect … Amaranthus retroflexus” value in experiment [2] is recorded as 5 (Level 5: growth control rate is above 85%).

`COC(=O)C[S@@+]([O-])c1c(C(F)(F)F)ccc(C(=O)Nc2nnc(C)o2)c1F` [Compound 196]: the “weeding effect … Echinochloa crusgali” value in experiment [1] was 5 (Level 5: growth control rate is above 85%). In addition, in experiment [2], the “weeding effect … Amaranthus retroflexus” value is 5 (Level 5: growth control rate is above 85%).

Regarding `Cc1nnc(NC(=O)c2ccc(C(F)(F)F)c([S@+]([O-])CC(=O)OC(C)(C)C)c2F)o1` [Compound 199], in experiment [1], the “weeding effect … Echinochloa crusgali” value is 5 (Level 5: growth control rate is above 85%). The “weeding effect … Amaranthus retroflexus” value in experiment [2] is 5 (Level 5: growth control rate is above 85%).

For the compound `Cc1nnc(NC(=O)c2ccc(C(F)(F)F)c([S@@+]([O-])COC(=O)C(C)(C)C)c2F)o1` [Compound 202], the “weeding effect … Echinochloa crusgali” value in experiment [1] is recorded as 5 (Level 5: growth control rate is above 85%). Also, the “weeding effect … Amaranthus retroflexus” value in experiment [2] is given as 5 (Level 5: growth control rate is above 85%).

As for `Cc1nnc(NC(=O)c2ccc(C(F)(F)F)c([S+]([O-])[Si](C)(C)C)c2F)o1` (stereo not drawn) [Compound 206], the “weeding effect … Echinochloa crusgali” value in experiment [1] is 5 (Level 5: growth control rate is above 85%). Besides, in experiment [2], the “weeding effect … Amaranthus retroflexus” value was 5 (Level 5: growth control rate is above 85%).

Consider `C#CCN(C(=O)c1ccc(C(F)(F)F)c([S@+]([O-])CC)c1F)c1nnc(C)o1` [Compound 214], for which, in experiment [1], the “weeding effect … Echinochloa crusgali” value is listed as 5 (Level 5: growth control rate is above 85%). Also, the “weeding effect … Amaranthus retroflexus” value in experiment [2] is on record as 5 (Level 5: growth control rate is above 85%).

For `CC[S@@+]([O-])c1c(C(F)(F)F)ccc(C(=O)N(C(C)=O)c2nnc(C)o2)c1F` [Compound 216], the “weeding effect … Echinochloa crusgali” value in experiment [1] is given as 5 (Level 5: growth control rate is above 85%). Besides, the “weeding effect … Amaranthus retroflexus” value in experiment [2] was 5 (Level 5: growth control rate is above 85%).

`CC[S@@+]([O-])c1c(C(F)(F)F)ccc(C(=O)N(C(=O)c2cn(C)nc2C)c2nnc(C)o2)c1F` [Compound 223]: the “weeding effect … Echinochloa crusgali” value in experiment [1] is reported as 5 (Level 5: growth control rate is above 85%). Also, the “weeding effect … Amaranthus retroflexus” value in experiment [2] was 5 (Level 5: growth control rate is above 85%).

In the case of `CC[S@@+]([O-])c1c(C(F)(F)F)ccc(C(=O)N(C(=O)OC)c2nnc(C)o2)c1F` [Compound 231], the “weeding effect … Echinochloa crusgali” value in experiment [1] was 5 (Level 5: growth control rate is above 85%). Moreover, the “weeding effect … Amaranthus retroflexus” value in experiment [2] is 5 (Level 5: growth control rate is above 85%).

Consider `COc1c(C(=O)Nc2nnc(C)o2)ccc(C(F)(F)F)c1[S@+]([O-])CCc1ccccc1` [Compound 318], for which the “weeding effect … Echinochloa crusgali” value in experiment [1] is reported as 5 (Level 5: growth control rate is above 85%). The “weeding effect … Amaranthus retroflexus” value in experiment [2] is 5 (Level 5: growth control rate is above 85%).

Consider `COc1c(C(=O)Nc2nnc(C)o2)ccc(C(F)(F)F)c1[S@+]([O-])CCO[Si](C)(C)C(C)(C)C` [Compound 349], for which, in experiment [1], the “weeding effect … Echinochloa crusgali” value is 5 (Level 5: growth control rate is above 85%). The “weeding effect … Amaranthus retroflexus” value in experiment [2] was 5 (Level 5: growth control rate is above 85%).

Regarding `COc1c(C(=O)Nc2nnc(C)o2)ccc(C(F)(F)F)c1[S@+]([O-])CC(C)=O` [Compound 351], in experiment [1], the “weeding effect … Echinochloa crusgali” value is reported as 5 (Level 5: growth control rate is above 85%). In addition, in experiment [2], the “weeding effect … Amaranthus retroflexus” value is 5 (Level 5: growth control rate is above 85%).
